Among the data in patent US20080146616A1, “Indoles Useful in the Treatment of Inflammation” (priority 2004, published 2008) are IC50 values, retold here.

The target of this assay is T1, human mPGES-1 (Homo sapiens, UniProt O14684).
T1 construct: made in house; host or cells: E. coli (membrane fraction)
T1 sequence (O14684 1-152): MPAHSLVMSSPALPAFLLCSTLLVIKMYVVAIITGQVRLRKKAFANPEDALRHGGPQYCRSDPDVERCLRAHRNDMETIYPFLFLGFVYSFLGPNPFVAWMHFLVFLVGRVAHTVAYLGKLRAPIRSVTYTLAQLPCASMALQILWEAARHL
As to the kind of experiment: mPGES-1 inhibition assay (conversion of PGH2 to PGE2, HPLC analysis). Type of assay: biochemical. Conditions: human mPGES-1 expressed in E. coli, membrane fraction; 25 min preincubation, PGH2 substrate 60 s, room temperature; read-out: concentration at which 50% inhibition of mPGES-1 was observed. On the procedure:
In the assay human in PGES-1 catalyses the reaction where the substrate PGH2 is converted to PGE2. mPGES-1 is expressed in E. Coli and the membrane fraction is dissolved in 20mM NaPi-buffer pH 8.0 and stored at −80° C. In the assay human mPGES-1 is dissolved in 0.1 M KPi-buffer pH 7.35 with 2.5 mM glutathione. The stop solution consists of H2O/MeCN (7/3), containing FeCl2 (25 mM) and HCl (0.15 M). The assay is performed at room temperature in 96-well plates. Analysis of the amount of PGE2 is performed with reversed phase HPLC (Waters 2795 equipped with a 3.9×150 mm C18 column). The mobile phase consists of H2O/MeCN (7/3), containing TFA (0.056%), and absorbance is measured at […] with a Waters 2487 UV-detector.
The following is added chronologically to each well: • 1. 100 μL human mPGES-1 in KPi-buffer with glutathione. Total protein concentration: 0.02 mg/mL. • 2. […] inhibitor in DMSO. Incubation of the plate at room temperature for 25 minutes. • 3. 4 μL of a […] PGH2 solution. Incubation of the plate at room temperature for 60 seconds. • 4. 100 μL stop solution. • 180 μL per sample is analyzed with HPLC.
Consider `CC(C)Oc1ccc(-n2c(C(=O)O)c(-c3cccnc3)c3cc(-c4ccc(C(F)(F)F)cc4)ccc32)cn1` [Example 11, 1-(6-Isopropoxypyrid-3-yl)-3-(pyrid-3-yl)-5-(4-(trifluoromethyl)phenyl)-indole-2-carboxylic acid], for which the IC50 was found to be 1800 nM.
Take `CC(C)Nc1ccc(-n2c(C(=O)O)c(-c3ccc(OC(C)C)cc3)c3cc(-c4ccc(C(C)(C)C)cc4)ccc32)cc1` [Example 6, 5-(4-tert-Butylphenyl)-3-(4-isopropoxyphenyl)-1-(4-(isopropylamino)-phenyl)indole-2-carboxylic acid]: the IC50 worked out at 70 nM.
As to `CC(C)Oc1ccc(-c2c(C(=O)O)n(-c3cccc(OC(C)C)c3)c3ccc(-c4ccc(C(C)(C)C)cc4)cc23)cc1` [Example 2, 5-(4-tert-Butylphenyl)-1-(3-isopropoxyphenyl)-3-(4-isopropoxyphenyl)-indole-2-carboxylic acid], the IC50 turned out to be 350 nM.
The figure for `CC(C)Oc1ccc(-c2c(C(=O)O)n(-c3cccnc3)c3ccc(-c4ccc(C(C)(C)C)cc4)cc23)cc1` [Example 13, 5-(4-tert-Butylphenyl)-3-(4-isopropoxyphenyl)-1-pyrid-3-yl-1H-indole-2-carboxylic acid] is 950 nM; for `CC(C)Oc1ccc(-c2c(C(=O)O)n(-c3ccc(N(C)C)cc3)c3ccc(-c4ccc(C(C)(C)C)cc4)cc23)cc1` [Example 5, 5-(4-tert-Butylphenyl)-1-(4-(dimethylamino)phenyl)-3-(4-isopropoxyphenyl)indole-2-carboxylic acid] it is 210 nM.
